Measured values taken from patent US20230338543A1, “GAMMA-HYDRO[…] AND PROCESSES FOR MAKING AND USING THEM” (Zevra Therapeutics, Inc., priority 2022, published 2023).

Assay: Pharmacokinetics of GHB in plasma after oral gavage of GHB delivering compounds in rats; relative oral bioavailability vs sodium oxybate
Details: vehicle water; for % AUC0-4 hr, relative oral bioavailability vs sodium oxybate / % Cmax, relative oral bioavailability vs sodium oxybate: mean conjugate PK parameter/mean comparator PK parameter
[1] = molar equivalent of 100 mg/kg NaGHB
[2] = dose equivalent to 80 mg/kg NaGHB (extrapolated to 100 mg/kg)
[3] = dose equivalent to 80 mg/kg NaGHB, data extrapolated to 100 mg/kg

Structure (SMILES)	AUC0-4 hr of GHB in plasma [1] [ng·h/mL]	Cmax of GHB in plasma [1] [ng/mL]	Tmax of GHB in plasma [1] [min]	% AUC0-4 hr, relative oral bioavailability vs sodium oxybate [1] [%]	% Cmax, relative oral bioavailability vs sodium oxybate [1] [%]	% AUC0-4 hr, relative oral bioavailability vs sodium oxybate [2] [%]	% Cmax, relative oral bioavailability vs sodium oxybate [2] [%]	AUC0-4 hr of GHB in plasma [3] [ng·h/mL]	Cmax of GHB in plasma [3] [ng/mL]	Tmax of GHB in plasma (dose equivalent to 80 mg/kg NaGHB) [min]
O=C1CCCO1 [GBL]	9.04	15.4	15	27	70					
CCOC(=O)OCCCC(=O)O [O-(ethoxycarbonyl)-GHB]						54	51	19.4	15.0	21
